In patent publication US6770593B1, “Fertilizer” (Mandops (UK) Limited, priority 1999, dated 2004):

Legend:
Type in all cases: in vivo
[1] = test system: Powdery Mildew; test: Powdery mildew on spring barley, with chlormequat (Table E1); details: applied at 3 leaves stage, CCC 1.25 l/ha, ATS 1.25 l/ha, KS 20 g/ha
[2] = test system: Spring Barley; test: Tillers of spring barley, with chlormequat at T1 and T2 (Table E2); details: applied at T1 (3 leaves stage) & T2 (prior to start of stem extension), CCC 0.8 l/ha, ATS 0.8 l/ha, KS 20 g/ha
[3] = test system: Spring Barley; test: Growth of spring barley, with chlormequat (Table E1); details: applied at 3 leaves stage, CCC 1.25 l/ha, ATS 1.25 l/ha, KS 20 g/ha
[4] = test system: Powdery Mildew; test: Powdery mildew on spring barley, with chlormequat at T1 and T2 (Table E2); details: applied at T1 (3 leaves stage) & T2 (prior to start of stem extension), CCC 0.8 l/ha, ATS 0.8 l/ha, KS 20 g/ha

C[N+](C)(C)CCCl.[Cl-] [CCC, Chlormequat]
Powdery Mildew (%) at +15 days [1]: 15%
Number of Tillers Initiated per Plant (mean of 10 plants) [2]: 3.5
Above Ground Dry Weight (g) Total of 10 plants [3]: 3.7 g
Above Ground Fresh Weight (g) Total of 10 plants [3]: 34.0 g
Amount of Rooting (0-9) Mean of 10 plants [3]: 5.5
Powdery Mildew (%) at +12 days [4]: 8%
Powdery Mildew (%) at +15 days [4]: 8%
Powdery Mildew (%) at +18 days [4]: 10%
